# From patent publication US12528792B2, “Sulfonamide compounds and the use thereof in the treatment of cancer” (TROBIO THERAPEUTICS PTY LTD, priority 2019, dated 2026)
# What was measured:
# Type in all cases: cell-based
# A2780 (ovarian) cells = test: Anti-proliferative activity, Cell-Titre luminescent viability assay; conditions: Homo sapiens, 72 h exposure, Cell-Titre luminescent reagent
# Procedure: (§1) The ability of compounds of the disclosure to inhibit the proliferation of cancer cells representative of non-small cell lung cancer and ovarian cancer (Table 1), and pancreatic cancer, colorectal cancer and prostate cancer (Table 2) was assessed. Briefly, a predetermined number of cells as calculated from cell growth assays for each of the cell lines employed were seeded into their respective culture medium (using ATCC culture parameters—http://www.atcc.org) and cultured for 24 h at 37° C. and 5% CO2 in 96-well culture plates. Once attached, each cell line was then exposed to various concentrations of each respective analogue (100, 30, 10, 3, 1 and 0.3 µM or 30, 10, 3, 1, 0.3 and 0.1 μM), cultured for a further 72 h and exposed to Cell-Titre luminescent reagent (100 μL/well) for a further 30 min. Luminescence was captured using an EnVision multilabel reader and the data for each analogue concentration compared against no treatment control. Cell viability was normalised to control (vehicle alone) and dose response curves, and half maximal effective concentration (EC50) values were determined using Graph Pad Prism 6 (nonlinear regression sigmoidal dose-response variable slope).
# A549 (NSCLC) cells = test: as above; conditions: Homo sapiens, 72 h exposure, Cell-Titre luminescent reagent
# Procedure: as §1
# [1] = tested on: SK-N-SH neuroblastoma cells; test: Cytotoxicity assay, MTS viability; conditions: Homo sapiens, 72 hours
# Procedure: The ability of compounds of the disclosure to inhibit the proliferation of SK—N—SH neuroblastoma cells was assessed. The SK—N—SH cell line was maintained as a monolayer in Dulbeccos Modified Eagles medium (DMEM) supplemented with 10% foetal bovine serum (FBS) and grown at 37° C. in a humidified atmosphere with 5% CO2. For the cytotoxicity assay, SK—N—SH cells were seeded at a density of 2×10^3 cells per well in 96-well plates. The cells were treated with serial dilutions of the test compounds (1:2 starting concentration 100 µM) and viability measured after 72 hours using a standard MTS assay. Cell viability was normalised to control (vehicle alone) and dose response curves and EC50 values (Table 3) were determined using Graph Pad Prism 6.
IC50 (A2780 (ovarian) cells),IC50 (A549 (NSCLC) cells),Compound,IC50 [1]
> 100 µM,19.9 µM,"CCC(C)c1ccc(NC(=O)C2CCN(S(=O)(=O)c3ccc4c(c3)CCN4)CC2)cc1 (centres unmarked) [Compound 3, N-(4-(sec-butyl)phenyl)-1-(indolin-5-ylsulfonyl) piperidine-4-carboxamide]",19.3 µM
8.71 µM,4.09 µM,"CC(C)c1ccc(NC(=O)c2ccn(S(=O)(=O)c3ccc4[nH]ccc4c3)n2)cc1F [Compound 108, 1-((1H-indol-5-yl)sulfonyl)-N-(3-fluoro-4-isopropylphenyl)-1H-pyrazole-3-carboxamide]",9.71 µM
20 µM,37.4 µM,"CCC(C)c1ccc(NC(=O)c2ccn(S(=O)(=O)c3ccc4c(c3)CCN4)c2)cc1 (centres unmarked) [Compound 21, N-(4-(sec-butyl)phenyl)-1-(indolin-5-ylsulfonyl)-1H-pyrrole-3-carboxamide]",27.1 µM
3.9 µM,3.9 µM,"CCC(C)c1ccc(NC(=O)c2ccn(S(=O)(=O)c3ccc4[nH]c(C)cc4c3)c2)cc1 (centres unmarked) [Compound 57, N-(4-(sec-butyl)phenyl)-1-((2-methyl-1H-indol-5-yl)sulfonyl)-1H-pyrrole-3-carboxamide]",7.22 µM
6.8 µM,27.6 µM,"CCC(C)c1ccc(NC(=O)c2ccn(S(=O)(=O)c3cc(C(N)=O)n(C)c3)c2)cc1 (centres unmarked) [Compound 18, 4-((3-((4-(sec-butyl)phenyl)carbamoyl)-1H-pyrrol-1-yl)sulfonyl)-1-methyl-1H-pyrrole-2-carboxamide]",22.3 µM
9.31 µM,14.3 µM,"O=C(Nc1ccc(Cl)c(Cl)c1)c1ccn(S(=O)(=O)c2ccc3[nH]ccc3c2)n1 [Compound 83, 1-((1H-indol-5-yl)sulfonyl)-N-(3,4-dichlorophenyl)-1H-pyrazole-3-carboxamide]",13.1 µM
> 100 µM,> 100 µM,"Cc1ccc(NC(=O)N2CCN(S(=O)(=O)c3ccc4c(c3)CCN4)CC2)cc1O [Compound 13, N-(3-hydroxy-4-methylphenyl)-4-(indolin-5-ylsulfonyl)piperazine-1-carboxamide]",–
> 100 µM,> 100 µM,"CNC(=O)C1CCN(S(=O)(=O)c2cc(C(N)=O)n(C)c2)CC1 [Compound 32, 1-((5-carbamoyl-1-methyl-1H-pyrrol-3-yl)sulfonyl)-N-methylpiperidine-4-carboxamide]",–
> 30 µM,> 30 µM,"COc1ccc(NC(=O)c2ccn(S(=O)(=O)c3ccc4[nH]ccc4c3)n2)cc1 [Compound 115, 1-((1H-indol-5-yl)sulfonyl)-N-(4-methoxyphenyl)-1H-pyrazole-3-carboxamide]",–
> 100 µM,> 100 µM,"CCC(C)c1ccc(NC(=O)C2CCN(S(=O)(=O)c3cc(C(=O)N(C)C)n(C)c3)CC2)cc1 (centres unmarked) [Compound 27, N-(4-(sec-butyl)phenyl)-1-((5-(dimethylcarbamoyl)-1-methyl-1H-pyrrol-3-yl)sulfonyl)piperidine-4-carboxamide]",–
13.4 µM,9.8 µM,"CCc1ccccc1NC(=O)c1ccn(S(=O)(=O)c2ccc3[nH]ccc3c2)c1 [Compound 42, 1-((1H-indol-5-yl)sulfonyl)-N-(2-ethylphenyl)-1H-pyrrole-3-carboxamide]",–
8.92 µM,> 30 µM,"O=C(Nc1ccc2c(c1)OCO2)c1ccn(S(=O)(=O)c2ccc3[nH]ccc3c2)c1 [Compound 104, 1-((1H-indol-5-yl)sulfonyl)-N-(benzo[d][1,3]dioxol-5-yl)-1H-pyrrole-3-carboxamide]",–
12.1 µM,> 100 µM,"CCC(C)c1ccc(NCC2CCN(S(=O)(=O)c3cc(C(N)=O)n(C)c3)CC2)cc1 (centres unmarked) [Compound 33, 4-((4-(((4-(sec-butyl)phenyl)amino)methyl)piperidin-1-yl)sulfonyl)-1-methyl-1H-pyrrole-2-carboxamide]",–
4.9 µM,7.47 µM,"CC(C)Cc1ccc(NC(=O)c2ccn(S(=O)(=O)c3ccc4[nH]ccc4c3)c2)cc1F [Compound 99, 1-((1H-indol-5-yl)sulfonyl)-N-(3-fluoro-4-isobutylphenyl)-1H-pyrrole-3-carboxamide]",–
> 30 µM,> 30 µM,"O=C(Nc1ccc2c(c1)OCO2)c1ccn(S(=O)(=O)c2ccc3[nH]ccc3c2)n1 [Compound 117, 1-((1H-indol-5-yl)sulfonyl)-N-(benzo[d][1,3]dioxol-5-yl)-1H-pyrazole-3-carboxamide]",–
> 30 µM,> 30 µM,"O=C(Nc1ccc(F)cn1)c1ccn(S(=O)(=O)c2ccc3[nH]ccc3c2)n1 [Compound 84, 1-((1H-indol-5-yl)sulfonyl)-N-(5-fluoropyridin-2-yl)-1H-pyrazole-3-carboxamide]",–

IC50 (A2780 (ovarian) cells),IC50 (A549 (NSCLC) cells),Compound,IC50 [1]
24.7 µM,> 100 µM,"Cn1cc(S(=O)(=O)n2ccc(C(=O)Nc3ccc(C(F)(F)F)cc3)c2)cc1C(N)=O [Compound 20, 1-methyl-4-((3-((4-(trifluoromethyl)phenyl)carbamoyl)-1H-pyrrol-1-yl)sulfonyl)-1H-pyrrole-2-carboxamide]",–
12.2 µM,13.8 µM,"O=C(Nc1ccc(F)c(Cl)c1)c1ccn(S(=O)(=O)c2ccc3[nH]ccc3c2)c1 [Compound 70, 1-((1H-indol-5-yl)sulfonyl)-N-(3-chloro-4-fluorophenyl)-1H-pyrrole-3-carboxamide]",–
5.07 µM,13.2 µM,"CC(C)Cc1ccc(NC(=O)c2ccn(S(=O)(=O)c3ccc4[nH]ccc4c3)c2)cc1 [Compound 98, 1-((1H-indol-5-yl)sulfonyl)-N-(4-isobutylphenyl)-1H-pyrrole-3-carboxamide]",–
> 100 µM,> 100 µM,"CCC(C)c1ccc(NC(=O)N2CCN(S(=O)(=O)c3ccc4c(c3)CCN4)CC2)cc1 (centres unmarked) [Compound 12, N-(4-(sec-butyl)phenyl)-4-(indolin-5-ylsulfonyl)piperazine-1-carboxamide]",–
> 30 µM,> 30 µM,"CC(C)(C)c1ccc(S(=O)(=O)n2ccc(C(=O)NCCc3ccc(C(F)(F)F)cc3)c2)cc1 [Compound 90, 1-((4-(tert-butyl)phenyl)sulfonyl)-N-(4-(trifluoromethyl)phenethyl)-1H-pyrrole-3-carboxamide]",–
10.5 µM,16.1 µM,"O=C(Nc1ccc(F)c(Cl)c1)c1ccn(S(=O)(=O)c2ccc3[nH]ccc3c2)n1 [Compound 82, 1-((1H-indol-5-yl)sulfonyl)-N-(3-chloro-4-fluorophenyl)-1H-pyrazole-3-carboxamide]",–
> 30 µM,19 µM,"O=C(Nc1ccc(Cl)cc1)c1ccn(S(=O)(=O)c2ccc3[nH]ccc3c2)n1 [Compound 77, 1-((1H-indol-5-yl)sulfonyl)-N-(4-chlorophenyl)-1H-pyrazole-3-carboxamide]",–
> 100 µM,> 100 µM,"Cn1cc(S(=O)(=O)N2CCC(C(=O)NC3CCCCC3)CC2)cc1C(N)=O [Compound 31, 1-((5-carbamoyl-1-methyl-1H-pyrrol-3-yl)sulfonyl)-N-cyclohexylpiperidine-4-carboxamide]",–
> 100 µM,> 100 µM,"Cc1ccc(NC(=O)C2CCN(S(=O)(=O)c3cc(C(N)=O)n(C)c3)CC2)cc1O [Compound 1, 1-((5-carbamoyl-1-methyl-1H-pyrrol-3-yl)sulfonyl)-N-(3-hydroxy-4-methylphenyl)piperidine-4-carboxamide]",–
26.7 µM,18.6 µM,"O=C(Nc1ccc(Cl)nc1)c1ccn(S(=O)(=O)c2ccc3[nH]ccc3c2)c1 [Compound 75, 1-((1H-indol-5-yl)sulfonyl)-N-(6-chloropyridin-3-yl)-1H-pyrrole-3-carboxamide]",–
9.33 µM,> 30 µM,"O=C(Nc1ccc(Cl)c(F)c1)c1ccn(S(=O)(=O)c2ccc3[nH]ccc3c2)n1 [Compound 81, 1-((1H-indol-5-yl)sulfonyl)-N-(4-chloro-3-fluorophenyl)-1H-pyrazole-3-carboxamide]",–
> 100 µM,> 100 µM,"CCC(C)c1ccc(NC(=O)N2CCN(S(=O)(=O)c3cc(C(N)=O)n(C)c3)CC2)cc1 (centres unmarked) [Compound 9, N-(4-(sec-butyl)phenyl)-4-((5-carbamoyl-1-methyl-1H-pyrrol-3-yl)sulfonyl)piperazine-1-carboxamide]",–
≥ 30 µM,> 30 µM,"O=C(Nc1ccc(Cl)nc1)c1ccn(S(=O)(=O)c2ccc3[nH]ccc3c2)n1 [Compound 87, 1-((1H-indol-5-yl)sulfonyl)-N-(6-chloropyridin-3-yl)-1H-pyrazole-3-carboxamide]",–
> 100 µM,> 100 µM,"Cn1cc(S(=O)(=O)N2CCC(C(=O)Nc3ccccc3)CC2)cc1C(N)=O [Compound 30, 1-((5-carbamoyl-1-methyl-1H-pyrrol-3-yl)sulfonyl)-N-phenylpiperidine-4-carboxamide]",–
> 100 µM,> 100 µM,"Cc1ccc(NC(=O)N2CCN(S(=O)(=O)c3cc(C(N)=O)n(C)c3)CC2)cc1O [Compound 10, 4-((5-carbamoyl-1-methyl-1H-pyrrol-3-yl)sulfonyl)-N-(3-hydroxy-4-methylphenyl)piperazine-1-carboxamide]",–
